# Reference: PMC8662641, “Site-Specific Labeling of Endogenous Proteins Using CoLDR Chemistry” (Journal of the American Chemical Society, 2021)
# Structures can show the parent of a compound that is named as a salt.
# Tests used:
# Src = system: Src; set-up: method as in selleck (supplier comment); conditions: ref selleck (supplier comment); cited from earlier work
# Abl = system: Abl; set-up: method as in selleck (supplier comment); conditions: ref selleck (supplier comment); cited from earlier work
# BTK = BTK (Homo sapiens, UniProt Q06187); set-up: BTK kinase domain was expressed and purified as previously reported; made in house; method as in Reddi et al., J. Am. Chem. Soc. 2021, 143 (13), 4979–4992; conditions: ref Reddi et al., J. Am. Chem. Soc. 2021, 143 (13), 4979–4992; cited from earlier work
# IKK-1 = system: IKK-1; set-up: method as in selleck (supplier comment); conditions: cell-free assays; ref selleck (supplier comment); cited from earlier work
# BTK-1h = target: T1, BTK-1h (Homo sapiens, UniProt Q06187); assay: High-throughput screening with 1h-labeled BTK; assay type: binding
# T1 construct: The BTK kinase domain was diluted to 2 μM in the buffer, and 2 μM 1h was added; made in house
# Description: The collection was composed of BTK binding compounds obtained in our previous luminescence screen[37] (Data set S2). […] The resulting BTK-1h (50 μL) was added to the inhibitors.
# IKK complex = system: IKK complex; set-up: method as in selleck (supplier comment); conditions: cell-free assays; ref selleck (supplier comment); cited from earlier work
# IKK-2 = system: IKK-2; set-up: method as in selleck (supplier comment); conditions: cell-free assays; ref selleck (supplier comment); cited from earlier work
# Bcr-Abl(T315I) = system: Bcr-Abl(T315I); set-up: method as in selleck (supplier comment); conditions: ref selleck (supplier comment); cited from earlier work
# Bcr-Abl(WT) = system: Bcr-Abl(WT); set-up: method as in selleck (supplier comment); conditions: ref selleck (supplier comment); cited from earlier work
# G-quadruplexe = target: G-quadruplexe; set-up: method as in selleck (supplier comment); conditions: cell-free assay; ref selleck (supplier comment); cited from earlier work
# DynII (rec) = system: DynII (rec); set-up: method as in selleck (supplier comment); conditions: ref selleck (supplier comment); cited from earlier work
# DynI (brain) = system: DynI (brain); set-up: method as in selleck (supplier comment); conditions: ref selleck (supplier comment); cited from earlier work
# WT BTK = system: WT BTK; set-up: method as in selleck (supplier comment); conditions: ref selleck (supplier comment); cited from earlier work
# C481S BTK = system: C481S BTK; set-up: method as in selleck (supplier comment); conditions: ref selleck (supplier comment); cited from earlier work
# [1] = Dataset S2A, 200 μM compound, BTK-1h, 32 °C, 10 min
# [2] = Dataset S2C, BTK-1h with inhibitor
# T1 sequence (Q06187 402-655): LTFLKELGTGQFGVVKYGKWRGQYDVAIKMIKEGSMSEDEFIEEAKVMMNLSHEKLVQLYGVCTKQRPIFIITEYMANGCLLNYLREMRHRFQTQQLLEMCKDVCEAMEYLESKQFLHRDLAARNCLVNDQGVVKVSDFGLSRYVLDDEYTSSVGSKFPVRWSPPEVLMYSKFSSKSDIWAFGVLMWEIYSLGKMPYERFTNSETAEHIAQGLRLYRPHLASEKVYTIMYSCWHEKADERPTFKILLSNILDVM
# BTK, sequence (Q06187 402-655 limits assumed): as the sequence (Q06187 402-655) above
FI (650)/FI (620) (BTK-1h; [1]),FI (BTK-1h)/FI (BTK-1h+Inhibitor) at 620 nm (BTK-1h; [1]),FI (650)/FI (620) (BTK-1h; [2]),SMILES,BTK Inhibition reported in luminescence assay* (BTK),also measured
1.968,1.715,1.715,"O=C(c1ccc(Nc2nccc(-c3cc4ccccc4s3)n2)cc1)N1CCC(N2CCCC2)CC1 [PCM-0095335-002, IKK-16]",86.2,IC50 (IKK-1): 200 nM; IC50 (IKK complex): 70 nM; IC50 (IKK-2): 40 nM
2.671,1.539,1.539,"NCCOc1cc(C(=O)Nc2cc(OCCN)c3ccccc3n2)nc(C(=O)Nc2cc(OCCN)c3ccccc3n2)c1 [PCM-0215476-001, Pyridostatin Trifluoroacetate Salt]",59.5,Kd (G-quadruplexe): 490 nM
10.1124,0.9372,–,"O=C(N/N=C/c1cc(O)c(O)cc1O)c1cc2ccccc2cc1O [PCM-0215496-001, Dyngo-4a]",77.2,"IC50 (DynII (rec)): 2300 nM; FI (BTK-1h)/FI (BTK-1h+Inhibitor) at 620 nm (BTK-1h; Dataset S2B, 200 μM inhibitor added to BTK-1h (2 μm)): 10.1124; IC50 (DynI (brain)): 380 nM"
3.795,2.9215,2.9215,"O=C(c1ccc(Oc2ccccc2)cc1Cl)c1c[nH]c2ncnc(N[C@@H]3CC[C@@H](CO)OC3)c12 [PCM-0216245-001, ARQ 531]",115.8,IC50 (WT BTK): 0.85 nM; IC50 (C481S BTK): 0.39 nM

SMILES,FI (650)/FI (620) (BTK-1h; [1]),FI (BTK-1h)/FI (BTK-1h+Inhibitor) at 620 nm (BTK-1h; [1]),FI (650)/FI (620) (BTK-1h; [2]),BTK Inhibition reported in luminescence assay* (BTK),also measured
"Cc1ccc(C(=O)Nc2ccc(CN3CCN(C)CC3)c(C(F)(F)F)c2)cc1C#Cc1cnc2[nH]ncc2c1 [PCM-0215209-001, GZD824 Dimesylate]",1.799,1.6661,1.6661,114.5,IC50 (Bcr-Abl(T315I)): 0.68 nM; IC50 (Bcr-Abl(WT)): 0.34 nM
